“And” between values parts separate entries of the source, which are not always exact repeats. Equal values may be shown once. Read-outs that look alike come from different tables or passages of the source.
Legend:
Assay in all cases: KINATIV assay
Type in all cases: cell-based
STLK6 = STLK6 (Homo sapiens (Human), UniProt Q9C0K7); details: 1 μM, 90 minutes, BCWM.1 cells
Procedure, shortened: (§1)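 An ATP-biotin probe is applied directly to lysates of harvested cells, and the kinases it binds are identified and quantified via ACTIVX.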

CSK = CSK (Homo sapiens (Human), UniProt P41240); details: 1 μM, 90 minutes, BCWM.1 cells
Procedure, shortened: as §1

MAP3K15, MAP3K5, MAP3K6 = details: 1 μM, 90 minutes, BCWM.1 cells
Procedure, shortened: as §1

NEK1 = NEK1 (Homo sapiens (Human), UniProt Q96PY6); details: 1 μM, 90 minutes, BCWM.1 cells
Procedure, shortened: as §1

TYK2 domain2 = TYK2 domain2 (Homo sapiens (Human), UniProt P29597); details: 1 μM, 90 minutes, BCWM.1 cells
Procedure, shortened: as §1

STK33 = STK33 (Homo sapiens (Human), UniProt Q9BYT3); details: 1 μM, 90 minutes, BCWM.1 cells
Procedure, shortened: as §1

LYN = LYN (Homo sapiens (Human), UniProt P07948); details: 1 μM, 90 minutes, BCWM.1 cells
Procedure, shortened: as §1

ACK = ACK (Homo sapiens (Human), UniProt Q07912); details: 1 μM, 90 minutes, BCWM.1 cells
Procedure, shortened: as §1

SNRK = SNRK (Homo sapiens (Human), UniProt Q9NRH2); details: 1 μM, 90 minutes, BCWM.1 cells
Procedure, shortened: as §1

BLK = BLK (Homo sapiens (Human), UniProt P51451); details: 1 μM, 90 minutes, BCWM.1 cells
Procedure, shortened: as §1

PKD2 = PKD2 (Homo sapiens (Human), UniProt Q9BZL6); details: 1 μM, 90 minutes, BCWM.1 cells
Procedure, shortened: as §1

NEK8 = NEK8 (Homo sapiens (Human), UniProt Q86SG6); details: 1 μM, 90 minutes, BCWM.1 cells
Procedure, shortened: as §1

ROCK1 = ROCK1 (Homo sapiens (Human), UniProt Q13464); details: 1 μM, 90 minutes, BCWM.1 cells
Procedure, shortened: as §1

MST4, YSK1 = details: 1 μM, 90 minutes, BCWM.1 cells
Procedure, shortened: as §1

SRPK1 = SRPK1 (Homo sapiens (Human), UniProt Q96SB4); details: 1 μM, 90 minutes, BCWM.1 cells
Procedure, shortened: as §1

[1] = system: ZC1/HGK, ZC2/TNIK, ZC3/MINK; details: 1 μM, 90 minutes, BCWM.1 cells
Procedure, shortened: as §1

NEK9 = NEK9 (Homo sapiens (Human), UniProt Q8TD19); details: 1 μM, 90 minutes, BCWM.1 cells
Procedure, shortened: as §1

MST4 = MST4 (Homo sapiens (Human), UniProt Q9P289); details: 1 μM, 90 minutes, BCWM.1 cells
Procedure, shortened: as §1

PEK = PEK (Homo sapiens (Human), UniProt Q9NZJ5); details: 1 μM, 90 minutes, BCWM.1 cells
Procedure, shortened: as §1

FGR = FGR (Homo sapiens (Human), UniProt P09769); details: 1 μM, 90 minutes, BCWM.1 cells
Procedure, shortened: as §1

LRRK2 = LRRK2 (Homo sapiens (Human), UniProt Q5S007); details: 1 μM, 90 minutes, BCWM.1 cells
Procedure, shortened: as §1

MARK3 = MARK3 (Homo sapiens (Human), UniProt P27448); details: 1 μM, 90 minutes, BCWM.1 cells
Procedure, shortened: as §1

CaMK2g = CaMK2g (Homo sapiens (Human), UniProt Q13555); details: 1 μM, 90 minutes, BCWM.1 cells
Procedure, shortened: as §1

CaMK1d = CaMK1d (Homo sapiens (Human), UniProt Q8IU85); details: 1 μM, 90 minutes, BCWM.1 cells
Procedure, shortened: as §1

JAK1 = JAK1 (Homo sapiens (Human), UniProt P23458); details: 1 μM, 90 minutes, BCWM.1 cells
Procedure, shortened: as §1

MAP3K1 = MAP3K1 (Homo sapiens (Human), UniProt Q13233); details: 1 μM, 90 minutes, BCWM.1 cells
Procedure, shortened: as §1

GSK3A = GSK3A (Homo sapiens (Human), UniProt P49840); details: 1 μM, 90 minutes, BCWM.1 cells
Procedure, shortened: as §1

p70S6K = p70S6K (Homo sapiens (Human), UniProt P23443); details: 1 μM, 90 minutes, BCWM.1 cells
Procedure, shortened: as §1

NEK6, NEK7 = details: 1 μM, 90 minutes, BCWM.1 cells
Procedure, shortened: as §1

MAST1, MAST2 = details: 1 μM, 90 minutes, BCWM.1 cells
Procedure, shortened: as §1

MARK2, MARK3 = details: 1 μM, 90 minutes, BCWM.1 cells
Procedure, shortened: as §1

PIK3C2B = PIK3C2B (Homo sapiens (Human), UniProt O00750); details: 1 μM, 90 minutes, BCWM.1 cells
Procedure, shortened: as §1

RSK2 domain2 = RSK2 domain2 (Homo sapiens (Human), UniProt P51812); details: 1 μM, 90 minutes, BCWM.1 cells
Procedure, shortened: as §1

LATS2 = LATS2 (Homo sapiens (Human), UniProt Q9NRM7); details: 1 μM, 90 minutes, BCWM.1 cells
Procedure, shortened: as §1

GSK3B = GSK3B (Homo sapiens (Human), UniProt P49841)
Procedure, shortened: as §1

CK2a2 = CK2a2 (Homo sapiens (Human), UniProt P19784); details: 1 μM, 90 minutes, BCWM.1 cells
Procedure, shortened: as §1

BTK = BTK (Homo sapiens (Human), UniProt Q06187); details: 1 μM, 90 minutes, BCWM.1 cells
Procedure, shortened: as §1

CLK3 = CLK3 (Homo sapiens (Human), UniProt P49761); details: 1 μM, 90 minutes, BCWM.1 cells
Procedure, shortened: as §1

AKT1 = AKT1 (Homo sapiens (Human), UniProt P31749); details: 1 μM, 90 minutes, BCWM.1 cells
Procedure, shortened: as §1

PKD1, PKD2 = details: 1 μM, 90 minutes, BCWM.1 cells
Procedure, shortened: as §1

PI4KB = PI4KB (Homo sapiens (Human), UniProt Q9UBF8); details: 1 μM, 90 minutes, BCWM.1 cells
Procedure, shortened: as §1

Sequence of CaMK1d (Q8IU85 whole entry): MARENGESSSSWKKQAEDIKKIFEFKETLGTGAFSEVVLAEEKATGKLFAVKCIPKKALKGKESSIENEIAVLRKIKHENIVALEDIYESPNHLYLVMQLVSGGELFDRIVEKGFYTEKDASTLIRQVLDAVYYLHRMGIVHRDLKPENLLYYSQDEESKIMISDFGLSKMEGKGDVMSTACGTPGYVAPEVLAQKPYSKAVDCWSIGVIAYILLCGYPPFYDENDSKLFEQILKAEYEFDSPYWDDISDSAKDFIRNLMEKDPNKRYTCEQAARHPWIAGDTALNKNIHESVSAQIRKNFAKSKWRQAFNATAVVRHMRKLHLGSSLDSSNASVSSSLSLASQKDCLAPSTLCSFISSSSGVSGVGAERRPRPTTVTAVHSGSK
Sequence of NEK9 (Q8TD19 whole entry): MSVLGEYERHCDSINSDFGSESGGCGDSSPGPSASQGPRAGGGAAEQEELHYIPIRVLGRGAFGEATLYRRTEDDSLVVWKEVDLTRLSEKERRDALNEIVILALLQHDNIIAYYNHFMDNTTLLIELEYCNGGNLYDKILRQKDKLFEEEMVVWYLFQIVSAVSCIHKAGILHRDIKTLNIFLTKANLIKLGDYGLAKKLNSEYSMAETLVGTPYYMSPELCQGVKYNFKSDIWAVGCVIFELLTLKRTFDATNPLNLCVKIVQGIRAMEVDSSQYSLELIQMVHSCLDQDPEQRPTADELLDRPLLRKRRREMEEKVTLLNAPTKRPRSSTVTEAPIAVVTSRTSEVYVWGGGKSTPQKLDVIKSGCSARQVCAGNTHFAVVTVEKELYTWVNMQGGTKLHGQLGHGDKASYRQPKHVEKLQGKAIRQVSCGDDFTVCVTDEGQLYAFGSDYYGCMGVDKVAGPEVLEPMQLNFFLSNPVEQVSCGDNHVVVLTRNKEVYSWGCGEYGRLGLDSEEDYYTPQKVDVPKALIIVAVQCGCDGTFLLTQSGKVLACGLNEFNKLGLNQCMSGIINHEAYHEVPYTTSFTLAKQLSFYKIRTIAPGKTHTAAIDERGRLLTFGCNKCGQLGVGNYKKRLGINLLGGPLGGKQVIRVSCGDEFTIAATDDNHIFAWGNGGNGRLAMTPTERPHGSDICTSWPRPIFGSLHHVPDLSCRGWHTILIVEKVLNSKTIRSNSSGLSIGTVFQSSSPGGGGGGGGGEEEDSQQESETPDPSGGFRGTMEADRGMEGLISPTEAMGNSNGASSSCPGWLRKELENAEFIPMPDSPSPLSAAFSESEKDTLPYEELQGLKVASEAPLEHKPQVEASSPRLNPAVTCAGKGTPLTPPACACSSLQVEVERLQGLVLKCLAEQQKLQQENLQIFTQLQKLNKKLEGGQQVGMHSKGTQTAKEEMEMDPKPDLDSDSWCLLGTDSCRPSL
Sequence of LYN (P07948 whole entry): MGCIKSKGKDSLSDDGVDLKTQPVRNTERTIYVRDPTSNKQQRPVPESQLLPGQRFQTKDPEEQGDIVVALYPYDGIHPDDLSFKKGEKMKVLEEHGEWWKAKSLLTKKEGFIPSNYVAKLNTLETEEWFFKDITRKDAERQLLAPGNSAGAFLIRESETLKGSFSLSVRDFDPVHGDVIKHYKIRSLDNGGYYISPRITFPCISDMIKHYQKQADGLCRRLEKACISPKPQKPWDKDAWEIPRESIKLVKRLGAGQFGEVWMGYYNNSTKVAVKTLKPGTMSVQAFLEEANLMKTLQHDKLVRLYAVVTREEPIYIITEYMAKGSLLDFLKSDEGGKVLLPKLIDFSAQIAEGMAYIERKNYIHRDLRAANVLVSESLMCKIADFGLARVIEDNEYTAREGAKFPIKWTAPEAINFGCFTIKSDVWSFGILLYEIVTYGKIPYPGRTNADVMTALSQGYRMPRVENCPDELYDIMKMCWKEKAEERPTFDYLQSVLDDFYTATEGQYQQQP
Sequence of BTK (Q06187 whole entry, looked up): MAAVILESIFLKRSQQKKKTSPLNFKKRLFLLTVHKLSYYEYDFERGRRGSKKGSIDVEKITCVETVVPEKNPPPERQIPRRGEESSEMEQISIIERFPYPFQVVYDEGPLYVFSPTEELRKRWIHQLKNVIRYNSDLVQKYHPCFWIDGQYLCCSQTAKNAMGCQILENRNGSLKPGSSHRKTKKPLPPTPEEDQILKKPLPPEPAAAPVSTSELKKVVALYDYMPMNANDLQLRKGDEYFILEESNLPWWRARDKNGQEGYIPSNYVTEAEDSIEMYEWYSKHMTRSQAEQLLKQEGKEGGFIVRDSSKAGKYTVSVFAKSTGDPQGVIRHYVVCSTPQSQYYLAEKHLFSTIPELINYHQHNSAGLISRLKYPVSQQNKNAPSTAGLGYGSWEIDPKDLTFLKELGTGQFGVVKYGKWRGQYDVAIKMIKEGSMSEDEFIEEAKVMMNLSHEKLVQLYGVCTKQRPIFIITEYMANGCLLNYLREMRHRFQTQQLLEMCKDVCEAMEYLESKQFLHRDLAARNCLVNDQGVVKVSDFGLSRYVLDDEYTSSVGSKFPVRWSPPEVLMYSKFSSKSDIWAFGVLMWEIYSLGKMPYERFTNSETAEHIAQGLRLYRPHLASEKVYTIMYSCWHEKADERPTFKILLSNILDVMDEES
Sequence of CSK (P41240 whole entry): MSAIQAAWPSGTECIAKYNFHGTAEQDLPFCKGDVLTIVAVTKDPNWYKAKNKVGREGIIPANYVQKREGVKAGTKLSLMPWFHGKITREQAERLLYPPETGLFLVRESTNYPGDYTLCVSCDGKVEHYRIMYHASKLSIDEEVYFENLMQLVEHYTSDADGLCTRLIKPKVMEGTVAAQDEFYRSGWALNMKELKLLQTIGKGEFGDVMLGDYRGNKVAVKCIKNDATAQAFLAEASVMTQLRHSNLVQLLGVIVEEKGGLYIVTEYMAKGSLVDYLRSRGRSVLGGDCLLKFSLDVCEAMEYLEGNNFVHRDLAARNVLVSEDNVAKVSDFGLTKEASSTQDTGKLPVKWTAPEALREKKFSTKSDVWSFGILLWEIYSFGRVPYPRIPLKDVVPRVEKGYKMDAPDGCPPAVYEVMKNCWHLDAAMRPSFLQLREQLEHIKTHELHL
Sequence of PI4KB (Q9UBF8 whole entry): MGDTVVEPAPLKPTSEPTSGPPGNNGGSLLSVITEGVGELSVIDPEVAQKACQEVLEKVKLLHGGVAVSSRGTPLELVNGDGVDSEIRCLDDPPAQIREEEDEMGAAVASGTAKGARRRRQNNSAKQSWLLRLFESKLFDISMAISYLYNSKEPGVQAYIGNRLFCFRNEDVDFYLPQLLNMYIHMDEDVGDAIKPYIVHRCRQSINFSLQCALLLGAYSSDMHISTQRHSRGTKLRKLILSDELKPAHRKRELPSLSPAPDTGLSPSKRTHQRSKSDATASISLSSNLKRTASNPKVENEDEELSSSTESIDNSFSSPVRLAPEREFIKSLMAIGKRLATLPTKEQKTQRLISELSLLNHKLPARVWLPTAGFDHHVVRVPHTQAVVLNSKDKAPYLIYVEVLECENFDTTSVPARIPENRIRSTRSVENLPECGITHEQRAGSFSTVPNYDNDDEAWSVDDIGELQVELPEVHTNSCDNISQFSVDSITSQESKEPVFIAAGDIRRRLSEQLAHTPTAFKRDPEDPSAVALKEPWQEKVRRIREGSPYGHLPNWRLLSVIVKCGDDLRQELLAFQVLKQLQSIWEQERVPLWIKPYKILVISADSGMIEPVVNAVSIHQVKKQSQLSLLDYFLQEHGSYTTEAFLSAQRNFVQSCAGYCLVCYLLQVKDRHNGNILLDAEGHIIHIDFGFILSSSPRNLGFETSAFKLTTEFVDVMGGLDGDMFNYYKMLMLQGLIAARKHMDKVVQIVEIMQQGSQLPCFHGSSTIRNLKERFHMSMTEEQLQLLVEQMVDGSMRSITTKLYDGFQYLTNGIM
Sequence of SNRK (Q9NRH2 whole entry): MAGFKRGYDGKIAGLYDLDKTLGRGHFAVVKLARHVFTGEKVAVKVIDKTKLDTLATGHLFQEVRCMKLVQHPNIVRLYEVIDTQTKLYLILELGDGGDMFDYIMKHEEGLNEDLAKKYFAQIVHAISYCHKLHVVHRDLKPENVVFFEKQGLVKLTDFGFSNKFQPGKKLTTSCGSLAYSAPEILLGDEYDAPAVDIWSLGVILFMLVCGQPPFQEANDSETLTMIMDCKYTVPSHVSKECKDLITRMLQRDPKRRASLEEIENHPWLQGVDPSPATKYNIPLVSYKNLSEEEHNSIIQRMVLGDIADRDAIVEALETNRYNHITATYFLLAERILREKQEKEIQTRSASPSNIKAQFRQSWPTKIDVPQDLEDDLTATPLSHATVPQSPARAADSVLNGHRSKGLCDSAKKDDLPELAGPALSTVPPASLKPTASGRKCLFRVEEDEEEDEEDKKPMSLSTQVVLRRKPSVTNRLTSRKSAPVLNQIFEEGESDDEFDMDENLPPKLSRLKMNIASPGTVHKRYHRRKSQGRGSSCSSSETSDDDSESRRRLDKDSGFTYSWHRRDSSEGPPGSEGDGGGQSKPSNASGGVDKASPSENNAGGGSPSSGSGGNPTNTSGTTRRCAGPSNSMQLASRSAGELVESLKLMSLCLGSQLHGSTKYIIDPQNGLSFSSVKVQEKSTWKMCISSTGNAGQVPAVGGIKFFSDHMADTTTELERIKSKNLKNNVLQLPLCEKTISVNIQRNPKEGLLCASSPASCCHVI
Sequence of STLK6 (Q9C0K7 whole entry): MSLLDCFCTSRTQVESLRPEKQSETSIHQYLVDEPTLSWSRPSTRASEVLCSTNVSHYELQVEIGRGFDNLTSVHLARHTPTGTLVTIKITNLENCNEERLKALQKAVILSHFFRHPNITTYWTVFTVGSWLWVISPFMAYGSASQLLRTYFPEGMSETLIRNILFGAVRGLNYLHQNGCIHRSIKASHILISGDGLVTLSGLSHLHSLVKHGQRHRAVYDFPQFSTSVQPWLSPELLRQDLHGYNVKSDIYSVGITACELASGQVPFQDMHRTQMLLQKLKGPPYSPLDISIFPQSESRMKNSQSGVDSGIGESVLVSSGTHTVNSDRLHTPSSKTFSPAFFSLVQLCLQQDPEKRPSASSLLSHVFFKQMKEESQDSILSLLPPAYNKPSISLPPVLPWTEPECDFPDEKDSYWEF

C=CC(=O)N1CCC(CNc2nccc(Nc3ncc(C(=O)Nc4c(C)cccc4C)s3)n2)C1 (racemic) [Example I-8]
% change of MS signal compared to control sample (STLK6): −12.9% | % change of MS signal compared to control sample (CSK): 88.1% and 86.2% | % change of MS signal compared to control sample (MAP3K15, MAP3K5, MAP3K6): 2.2% | % change of MS signal compared to control sample (NEK1): 12.8% | % change of MS signal compared to control sample (TYK2 domain2): −44.6% | % change of MS signal compared to control sample (STK33): 29.8% | % change of MS signal compared to control sample (LYN): >97% and >90% | % change of MS signal compared to control sample (ACK): 69.9% and 82.4% | % change of MS signal compared to control sample (SNRK): 45.1% and 59.1% | % change of MS signal compared to control sample (BLK): >95% | % change of MS signal compared to control sample (PKD2): 8.7% | % change of MS signal compared to control sample (NEK8): 13.1% | % change of MS signal compared to control sample (ROCK1): 4.4% | % change of MS signal compared to control sample (MST4, YSK1): 19.3% | % change of MS signal compared to control sample (SRPK1): −19.5% | % change of MS signal compared to control sample [1]: 13.6% | % change of MS signal compared to control sample (NEK9): −1.3% and −0.3% | % change of MS signal compared to control sample (MST4): −0.8% | % change of MS signal compared to control sample (PEK): 3.3% | % change of MS signal compared to control sample (FGR): 86.0% | % change of MS signal compared to control sample (LRRK2): −12.2% | % change of MS signal compared to control sample (MARK3): 7.8% | % change of MS signal compared to control sample (CaMK2g): −9.4% | % change of MS signal compared to control sample (CaMK1d): −14.1% and −8.7% | % change of MS signal compared to control sample (JAK1): −1.9% | % change of MS signal compared to control sample (MAP3K1): 15.5% | % change of MS signal compared to control sample (GSK3A): −14.2% | % change of MS signal compared to control sample (p70S6K): −36.8% | % change of MS signal compared to control sample (NEK6, NEK7): −11.0% | % change of MS signal compared to control sample (MAST1, MAST2): −32.5% | % change of MS signal compared to control sample (MARK2, MARK3): 7.5% | % change of MS signal compared to control sample (PIK3C2B): 12.5% | % change of MS signal compared to control sample (RSK2 domain2): −6.8% | % change of MS signal compared to control sample (LATS2): 10.6% | % change of MS signal compared to control sample (GSK3B): −10.7% | % change of MS signal compared to control sample (CK2a2): 27.5% | % change of MS signal compared to control sample (BTK): 98.0% and >90% | % change of MS signal compared to control sample (CLK3): −14.9% | % change of MS signal compared to control sample (AKT1): −19.5% | % change of MS signal compared to control sample (PKD1, PKD2): −15.3% | % change of MS signal compared to control sample (PI4KB): 44.2% and 41.9%

C=CC(=O)N1CC[C@@H](Nc2nccc(Nc3ncc(C(=O)Nc4c(C)cccc4C)s3)n2)C1 [Example I-4]
% change of MS signal compared to control sample (STLK6): 7.4% | % change of MS signal compared to control sample (CSK): 35.7% | % change of MS signal compared to control sample (MAP3K15, MAP3K5, MAP3K6): 2.8% | % change of MS signal compared to control sample (NEK1): 7.3% | % change of MS signal compared to control sample (TYK2 domain2): −3.8% | % change of MS signal compared to control sample (STK33): −23.0% | % change of MS signal compared to control sample (LYN): >97% and >90% | % change of MS signal compared to control sample (ACK): 27.0% and 22.8% | % change of MS signal compared to control sample (SNRK): 35.3% and 61.9% | % change of MS signal compared to control sample (BLK): >95% | % change of MS signal compared to control sample (PKD2): 12.9% | % change of MS signal compared to control sample (NEK8): 14.6% | % change of MS signal compared to control sample (ROCK1): 6.7% | % change of MS signal compared to control sample (MST4, YSK1): 20.5% | % change of MS signal compared to control sample (SRPK1): −2.1% | % change of MS signal compared to control sample [1]: 3.3% | % change of MS signal compared to control sample (NEK9): −0.1% and 4.4% | % change of MS signal compared to control sample (MST4): −13.2% | % change of MS signal compared to control sample (PEK): −44.9% | % change of MS signal compared to control sample (FGR): 87.0% | % change of MS signal compared to control sample (LRRK2): −5.7% | % change of MS signal compared to control sample (MARK3): 13.5% | % change of MS signal compared to control sample (CaMK2g): −19.8% | % change of MS signal compared to control sample (CaMK1d): −12.5% and −4.0% | % change of MS signal compared to control sample (JAK1): −5.7% | % change of MS signal compared to control sample (MAP3K1): 18.4% | % change of MS signal compared to control sample (GSK3A): −10.5% | % change of MS signal compared to control sample (p70S6K): −102.3% | % change of MS signal compared to control sample (NEK6, NEK7): 3.7% | % change of MS signal compared to control sample (MAST1, MAST2): −62.1% | % change of MS signal compared to control sample (MARK2, MARK3): −31.5% | % change of MS signal compared to control sample (PIK3C2B): −5.8% | % change of MS signal compared to control sample (RSK2 domain2): 13.8% | % change of MS signal compared to control sample (LATS2): −9.2% | % change of MS signal compared to control sample (GSK3B; GSK3B, 1 μM, 90 minutes, BCWM.1 cells): 0.7% | % change of MS signal compared to control sample (CK2a2): −3.6% | % change of MS signal compared to control sample (BTK): 97.0% and >90% | % change of MS signal compared to control sample (CLK3): −1.3% | % change of MS signal compared to control sample (AKT1): −11.0% | % change of MS signal compared to control sample (PKD1, PKD2): −4.7% | % change of MS signal compared to control sample (PI4KB): 20.0% and 16.7%

From US10844077B2, “Thiazolyl-containing compounds for treating proliferative diseases” (Dana-Farber Cancer Institute, Inc., priority 2014, dated 2020)
